Measurements: patent US20200360352A1, “USE OF RIFAMYCIN-NITROIMIDAZOLE COUPLING MOLECULE” (priority 2019, published 2020)
Converted amounts (≈) assume the structure as drawn. Read-outs that look alike come from different tables or passages of the source.

What was measured:
Format in all cases: cell-based
[1] = system: Mycobacterium abscessus; assay: MBC, plating of MIC wells and CFU count; conditions: Mycobacteroides abscessus, read-out: Minimum Bactericidal Concentration (MBC)
[2] = system: Mycobacterium intracellulare; assay: MIC, micro broth dilution with resazurin readout; conditions: MH Culture Medium, read-out: Minimum Inhibitory Concentration (MIC)
[3] = system: Mycobacterium avium; assay: MBC, plating of MIC wells and CFU count; conditions: read-out: Minimum Bactericidal Concentration (MBC)
[4] = system: Mycobacterium fortuitum; assay: MIC, micro broth dilution with resazurin readout; conditions: Mycolicibacterium fortuitum, MH Culture Medium, read-out: Minimum Inhibitory Concentration (MIC)
[5] = system: Mycodacterium chelonei; assay: MIC, micro broth dilution with resazurin readout; conditions: MH Culture Medium; Chelonei (standard strain); read-out: Minimum Inhibitory Concentration (MIC)
[6] = system: Mycobacterium abscessus; assay: MIC, micro broth dilution with resazurin readout; conditions: Mycobacteroides abscessus, read-out: Minimum Inhibitory Concentration (MIC)
[7] = system: Mycobacterium kansasii; assay: MBC, plating of MIC wells and CFU count; conditions: read-out: Minimum Bactericidal Concentration (MBC)
[8] = system: Mycobacterium massiliense; assay: MIC, micro broth dilution with resazurin readout; conditions: Mycobacteroides abscessus, MH Culture Medium, read-out: Minimum Inhibitory Concentration (MIC)
[9] = system: Mycobacterium kansasii; assay: MIC, micro broth dilution with resazurin readout; conditions: read-out: Minimum Inhibitory Concentration (MIC)
[10] = system: Mycobacterium avium; assay: MIC, micro broth dilution with resazurin readout; conditions: read-out: Minimum Inhibitory Concentration (MIC)
[11] = Intracellulare (standard strain)
[12] = clinically isolated strain Intracellulare (S90)
[13] = clinically isolated strain Intracellulare (S261)
[14] = clinically isolated strain Intracellulare (S269)
[15] = clinically isolated strain Intracellulare (S290)
[16] = clinically isolated strain Intracellulare (S291)
[17] = clinically isolated strain Intracellulare (S298)
[18] = clinically isolated strain Intracellulare (S442)
[19] = clinically isolated strain Intracellulare (S541)
[20] = clinically isolated strain Intracellulare (S623)
[21] = clinically isolated strain Intracellulare (ZPS)
[22] = 7H9 Broth, Mycobacterium avium Rough
[23] = 7H9 Broth, Mycobacterium avium Smooth
[24] = MH Broth, Mycobacterium avium Rough
[25] = MH Broth, Mycobacterium avium Smooth
[26] = clinically isolated strain Fortuitum (S103)
[27] = clinically isolated strain Fortuitum (S111)
[28] = clinically isolated strain Massiliense (D10)
[29] = clinically isolated strain Massiliense (D14)
[30] = clinically isolated strain Massiliense (D18)
[31] = MH Culture Medium, Kansasii (standard strain)
[32] = MH Culture Medium, clinically isolated strain Kansasii (S9)
[33] = MH Culture Medium, clinically isolated strain Kansasii (S199)
[34] = MH Culture Medium, clinically isolated strain Kansasii (S520)
[35] = MH Culture Medium, clinically isolated strain Kansasii (S609)
[36] = MH Culture Medium, Avium (standard strain)
[37] = MH Culture Medium, clinically isolated strain Avium (S31)
[38] = MH Culture Medium, clinically isolated strain Avium (S123)
[39] = MH Culture Medium, clinically isolated strain Avium (S559)
[40] = MH Culture Medium, clinically isolated strain Avium (S568)
[41] = MH Culture Medium, clinically isolated strain Avium (S577)
[42] = MH Culture Medium, clinically isolated strain Avium (S597)
[43] = MH Culture Medium, clinically isolated strain Avium (S602)

`CC[C@H]1OC(=O)[C@H](C)[C@@H](O[C@H]2C[C@@](C)(OC)[C@@H](O)[C@H](C)O2)[C@H](C)[C@@H](O[C@@H]2O[C@H](C)C[C@H](N(C)C)[C@H]2O)[C@](C)(OC)C[C@@H](C)C(=O)[C@H](C)[C@@H](O)[C@]1(C)O` [Clarithromycin] showed an MBC ([1]; 7H9 Broth) greater than 64 µg/mL, an MBC ([1]; MH Broth) greater than 64 µg/mL and an MIC [2, 11] of 0.0625 µg/mL (≈ 0.0836 µM). For the same molecule, the MIC [2, 12] was 1 µg/mL (≈ 1.34 µM), the MIC [2, 13] was 1 µg/mL (≈ 1.34 µM) and the MIC [2, 14] was 1 µg/mL (≈ 1.34 µM). For the same molecule, the MIC [2, 15] was 1 µg/mL (≈ 1.34 µM), the MIC [2, 16] was 1 µg/mL (≈ 1.34 µM) and the MIC [2, 17] was 2 µg/mL (≈ 2.67 µM). It also gave an MIC [2, 18] of 2 µg/mL (≈ 2.67 µM), an MIC [2, 19] of 64 µg/mL (≈ 85.6 µM) and an MIC [2, 20] of 4 µg/mL (≈ 5.35 µM). For the same molecule, the MIC [2, 21] was 1 µg/mL (≈ 1.34 µM), the MBC [3, 22] was greater than 64 µg/mL and the MBC [3, 23] was greater than 64 µg/mL. For the same molecule, the MBC [3, 24] was greater than 64 µg/mL, the MBC [3, 25] was greater than 64 µg/mL and the MIC ([4]; Fortuitum (standard strain)) was 32 µg/mL (≈ 42.8 µM). It also gave an MIC [4, 26] greater than 64 µg/mL, an MIC [4, 27] of 2 µg/mL (≈ 2.67 µM) and an MIC [5] of 0.5 µg/mL (≈ 0.668 µM). It also gave an MIC ([6]; 7H9 Broth) of 16 µg/mL (≈ 21.4 µM), an MIC ([6]; MH Broth) of 64 µg/mL (≈ 85.6 µM) and an MBC ([7]; 7H9 Broth) of 64 µg/mL (≈ 85.6 µM). For the same molecule, the MBC ([7]; MH Broth) was greater than 64 µg/mL, the MIC [8, 28] was 0.25 µg/mL (≈ 0.334 µM) and the MIC [8, 29] was 0.0625 µg/mL (≈ 0.0836 µM). The MIC [8, 30] was 0.0625 µg/mL (≈ 0.0836 µM), the MIC ([9]; 7H9 Broth) was 2 µg/mL (≈ 2.67 µM) and the MIC ([9]; MH Broth) was 2 µg/mL (≈ 2.67 µM). For the same molecule, the MIC [9, 31] was 0.0625 µg/mL (≈ 0.0836 µM), the MIC [9, 32] was 0.125 µg/mL (≈ 0.167 µM) and the MIC [9, 33] was 0.0625 µg/mL (≈ 0.0836 µM). It also gave an MIC [9, 34] of 0.0625 µg/mL (≈ 0.0836 µM), an MIC [9, 35] of 0.125 µg/mL (≈ 0.167 µM) and an MIC [10, 22] greater than 64 µg/mL. For the same molecule, the MIC [10, 23] was 32 µg/mL (≈ 42.8 µM), the MIC [10, 24] was greater than 64 µg/mL and the MIC [10, 25] was greater than 64 µg/mL. For the same molecule, the MIC [10, 36] was 0.0625 µg/mL (≈ 0.0836 µM), the MIC [10, 37] was 0.125 µg/mL (≈ 0.167 µM) and the MIC [10, 38] was 0.5 µg/mL (≈ 0.668 µM). It also gave an MIC [10, 39] of 0.25 µg/mL (≈ 0.334 µM), an MIC [10, 40] of 4 µg/mL (≈ 5.35 µM) and an MIC [10, 41] of 0.25 µg/mL (≈ 0.334 µM). For the same molecule, the MIC [10, 42] was 1 µg/mL (≈ 1.34 µM) and the MIC [10, 43] was 1 µg/mL (≈ 1.34 µM).

`COc1c(N2C[C@@H]3CCCN[C@@H]3C2)c(F)cc2c(=O)c(C(=O)O)cn(C3CC3)c12` [Moxifloxacin] was tested, and the MIC [2, 11] was 0.25 µg/mL (≈ 0.623 µM), the MIC [2, 12] was 2 µg/mL (≈ 4.98 µM) and the MIC [2, 13] was 2 µg/mL (≈ 4.98 µM). For the same molecule, the MIC [2, 14] was 2 µg/mL (≈ 4.98 µM), the MIC [2, 15] was 2 µg/mL (≈ 4.98 µM) and the MIC [2, 16] was 1 µg/mL (≈ 2.49 µM). It also gave an MIC [2, 17] of 2 µg/mL (≈ 4.98 µM), an MIC [2, 18] of 2 µg/mL (≈ 4.98 µM) and an MIC [2, 19] of 64 µg/mL (≈ 159 µM). For the same molecule, the MIC [2, 20] was 2 µg/mL (≈ 4.98 µM), the MIC [2, 21] was 1 µg/mL (≈ 2.49 µM) and the MIC ([4]; Fortuitum (standard strain)) was 1 µg/mL (≈ 2.49 µM). It also gave an MIC [4, 26] of 1 µg/mL (≈ 2.49 µM), an MIC [4, 27] of 0.5 µg/mL (≈ 1.25 µM) and an MIC [5] of 4 µg/mL (≈ 9.96 µM). The MIC [8, 28] was 32 µg/mL (≈ 79.7 µM), the MIC [8, 29] was 32 µg/mL (≈ 79.7 µM) and the MIC [8, 30] was 8 µg/mL (≈ 19.9 µM). For the same molecule, the MIC [9, 31] was 0.0625 µg/mL (≈ 0.156 µM), the MIC [9, 32] was 0.0625 µg/mL (≈ 0.156 µM) and the MIC [9, 33] was 0.0625 µg/mL (≈ 0.156 µM). The MIC [9, 34] was 0.0625 µg/mL (≈ 0.156 µM), the MIC [9, 35] was 0.0625 µg/mL (≈ 0.156 µM) and the MIC [10, 36] was 1 µg/mL (≈ 2.49 µM). The MIC [10, 37] was 8 µg/mL (≈ 19.9 µM), the MIC [10, 38] was 0.5 µg/mL (≈ 1.25 µM) and the MIC [10, 39] was 1 µg/mL (≈ 2.49 µM). It also gave an MIC [10, 40] of 0.5 µg/mL (≈ 1.25 µM), an MIC [10, 41] of 0.5 µg/mL (≈ 1.25 µM) and an MIC [10, 42] of 2 µg/mL (≈ 4.98 µM). The MIC [10, 43] was 4 µg/mL (≈ 9.96 µM).

Work on `CO[C@H]1/C=C/O[C@@]2(C)Oc3c(C)c(O)c4c(c3C2=O)C2=NC3(CCN(CC(C)C)CC3)NC2=C(NC(=O)/C(C)=C\C=C\[C@H](C)[C@H](O)[C@@H](C)[C@@H](O)[C@@H](C)[C@H](OC(C)=O)[C@@H]1C)C4=O` [Rifabutin] yielded an MIC [2, 11] of 0.0625 µg/mL (≈ 0.0738 µM), an MIC [2, 12] of 0.125 µg/mL (≈ 0.148 µM) and an MIC [2, 13] of 0.25 µg/mL (≈ 0.295 µM). For the same molecule, the MIC [2, 14] was 0.0625 µg/mL (≈ 0.0738 µM), the MIC [2, 15] was 0.0625 µg/mL (≈ 0.0738 µM) and the MIC [2, 16] was 0.0625 µg/mL (≈ 0.0738 µM). The MIC [2, 17] was 0.5 µg/mL (≈ 0.59 µM), the MIC [2, 18] was 0.0625 µg/mL (≈ 0.0738 µM) and the MIC [2, 19] was 0.125 µg/mL (≈ 0.148 µM). For the same molecule, the MIC [2, 20] was 0.25 µg/mL (≈ 0.295 µM), the MIC [2, 21] was 0.0625 µg/mL (≈ 0.0738 µM) and the MIC ([4]; Fortuitum (standard strain)) was 4 µg/mL (≈ 4.72 µM). It also gave an MIC [4, 26] of 32 µg/mL (≈ 37.8 µM), an MIC [4, 27] of 4 µg/mL (≈ 4.72 µM) and an MIC [5] of 64 µg/mL (≈ 75.6 µM). The MIC [8, 28] was greater than 64 µg/mL, the MIC [8, 29] was 64 µg/mL (≈ 75.6 µM) and the MIC [8, 30] was 64 µg/mL (≈ 75.6 µM). The MIC [9, 31] was 0.0625 µg/mL (≈ 0.0738 µM), the MIC [9, 32] was 0.0625 µg/mL (≈ 0.0738 µM) and the MIC [9, 33] was 0.0625 µg/mL (≈ 0.0738 µM). It also gave an MIC [9, 34] of 0.0625 µg/mL (≈ 0.0738 µM), an MIC [9, 35] of 0.0625 µg/mL (≈ 0.0738 µM) and an MIC [10, 36] of 0.0625 µg/mL (≈ 0.0738 µM). For the same molecule, the MIC [10, 37] was 0.0625 µg/mL (≈ 0.0738 µM), the MIC [10, 38] was 0.0625 µg/mL (≈ 0.0738 µM) and the MIC [10, 39] was 0.0625 µg/mL (≈ 0.0738 µM). It also gave an MIC [10, 40] of 0.0625 µg/mL (≈ 0.0738 µM), an MIC [10, 41] of 0.0625 µg/mL (≈ 0.0738 µM) and an MIC [10, 42] of 0.0625 µg/mL (≈ 0.0738 µM). The MIC [10, 43] was 0.0625 µg/mL (≈ 0.0738 µM).
